Test results: EP3130589A1, “HETEROCYCLIC AZA COMPOUNDS” (Grünenthal GmbH, priority 2015, dated 2017)

Target: T1, TRPV1 human (Homo sapiens, UniProt Q8NER1)
T1 construct: expressed in transfected cells; host or cells: CHO K1 cells
Experiment: Functional testing on the vanilloid receptor 1 (VR1/TRPV1): FLIPR Ca2+ influx assay, inhibition of capsaicin (CAP) stimulation
Assay type: cell-based
Details: for Ki: functional (f) FLIPR assay, capsaicin (CAP) 100 nM, Ki from IC50 by Cheng-Prusoff equation; for inhibition at 5 µM: @ 5 µM compound; for TRPV1 human (f) CAP, result in words: ne = did not show any effect in this assay, pAG = partial agonist
Method: Furthermore, preference may be given to compounds according to the invention that cause a 50 per cent displacement of capsaicin, which is present at a concentration of 100 nM, in a FLIPR assay with CHO K1 cells which were transfected with the human VR1 gene at a concentration of less than 6,000 nM, preferably less than 5,000 nM, more preferably less that 3,000 nM or less than 1,000 nM and particularly preferably less than 300 nM, most particularly preferably less than 100 nM, even more preferably less than 75 nM, additionally preferably less than 50 nM, most preferably less than 10 nM.
In the process, the Ca^2+ influx is quantified in the FLIPR assay with the aid of a Ca^2+-sensitive dye (type Fluo-4, Molecular Probes Europe BV, Leiden, the Netherlands) in a fluorescent imaging plate reader (FLIPR, Molecular Devices, Sunnyvale, USA), as described hereinafter.
Functional testing carried out on the vanilloid receptor 1 (VRI/TRPV1 receptor) […]
The number of cells in the suspension is set to 3 x 10^5 per mL and 150 µL of this suspension are in each case introduced into a recess in the cell culture plates coated as described hereinbefore. In the incubator the plates are left for two to three days at 37°C, 5 vol.-% of CO2 and 95 % relative humidity. Subsequently, the cells are loaded with 2 µM of Fluo-4 and 0.01 vol.-% of Pluronic F127 (Molecular Probes Europe BV, Leiden, the Netherlands) in HBSS buffer for 30 min at 37°C, washed 3 times with HBSS buffer and after further incubation for 15 min at RT used for Ca^2+ measurement in a FLIPR assay. The Ca^2+-dependent fluorescence is in this case measured before and after the addition of substances (λex = 488 nm, λem = 540 nm). Quantification is carried out by measuring the highest fluorescence intensity (FC, fluorescence counts) over time.
The FLIPR protocol consists of 2 substance additions. First the compounds to be tested (10 µM) are pipetted onto the cells and the Ca^2+ influx is compared with the control (capsaicin 10 µM). This provides the result in % activation based on the Ca^2+ signal after the addition of 10 µM of capsaicin (CP). After 5 min incubation, 100 nM of capsaicin are applied and the Ca^2+ influx is also determined. Desensitising agonists and antagonists lead to suppression of the Ca^2+ influx. The % inhibition is calculated compared to the maximum achievable inhibition with 10 µM of capsazepine.
Triple analyses (n=3) are carried out and repeated in at least 3 independent experiments (N=4). Starting from the percentage displacement caused by different concentrations of the compounds to be tested of general formula I, IC50 inhibitory concentrations which cause a 50% displacement of capsaicin were calculated.
Ki values for the test substances were obtained by conversion by means of the Cheng-Prusoff equation (Cheng, Prusoff; Biochem. Pharmacol. 22, 3099-3108, 1973).

[1] = capsaicin (CAP) stimulus, relative to maximum achievable inhibition with 10 µM capsazepine, read-out: TRPV1 human (f) CAP, inhibition (in %)

T1 sequence (Q8NER1 whole entry): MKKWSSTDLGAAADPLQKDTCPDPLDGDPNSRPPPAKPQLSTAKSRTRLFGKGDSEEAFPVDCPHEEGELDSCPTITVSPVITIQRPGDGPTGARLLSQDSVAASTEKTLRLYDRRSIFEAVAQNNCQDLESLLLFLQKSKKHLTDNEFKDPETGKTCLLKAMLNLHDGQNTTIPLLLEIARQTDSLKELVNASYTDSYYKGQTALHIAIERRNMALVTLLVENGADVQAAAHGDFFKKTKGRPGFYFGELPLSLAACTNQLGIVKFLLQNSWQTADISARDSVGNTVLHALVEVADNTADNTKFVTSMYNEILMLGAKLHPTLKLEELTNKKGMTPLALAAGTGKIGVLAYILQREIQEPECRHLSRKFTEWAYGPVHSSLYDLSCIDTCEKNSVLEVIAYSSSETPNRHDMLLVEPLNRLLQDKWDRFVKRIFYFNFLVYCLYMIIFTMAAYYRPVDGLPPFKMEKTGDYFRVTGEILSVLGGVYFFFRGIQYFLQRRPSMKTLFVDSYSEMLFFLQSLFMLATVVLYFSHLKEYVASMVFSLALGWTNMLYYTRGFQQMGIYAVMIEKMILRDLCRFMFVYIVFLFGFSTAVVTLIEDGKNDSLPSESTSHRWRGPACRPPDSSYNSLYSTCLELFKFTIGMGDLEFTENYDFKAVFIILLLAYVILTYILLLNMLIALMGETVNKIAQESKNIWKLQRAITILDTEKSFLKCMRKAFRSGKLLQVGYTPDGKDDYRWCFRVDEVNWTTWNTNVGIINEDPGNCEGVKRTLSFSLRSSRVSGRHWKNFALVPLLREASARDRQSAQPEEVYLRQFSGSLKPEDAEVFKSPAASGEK

Row | Compound | Ki | other results
1 | CC1CCN(c2nc(C(F)(F)F)ccc2CNC(=O)C(C)c2cn(C)c3ccc(O)cc23)CC1 (stereo not drawn) [example compound 1, 2-(5-hydroxy-1-methyl-1H-indol-3-yl)-N-((2-(4-methylpiperidin-1-yl)-6-(trifluoromethyl)pyridin-3-yl)methyl)propanamide] | 0.8 nM | 
2 | CCNc1nc(C(F)(F)F)ccc1CNC(=O)C(C)c1cn(C)c2ccc(O)cc12 (stereo not drawn) [example compound 4, N-((2-(ethylamino)-6-(trifluoromethyl)pyridin-3-yl)methyl)-2-(5-hydroxy-1-methyl-1H-indol-3-yl)propanamide] | 44.2 nM | 
3 | CC(C(=O)NCc1ccc(C(F)(F)F)nc1N1CCCC1)c1cn(C)c2ccc(O)cc12 (stereo not drawn) [example compound 5, 2-(5-hydroxy-1-methyl-1H-indol-3-yl)-N-((2-(pyrrolidin-1-yl)-6-(trifluoromethyl)pyridin-3-yl)methyl)propanamide] | 5 nM | 
4 | CCCCNc1nc(C(F)(F)F)ccc1CNC(=O)C(C)c1cn(C)c2ccc(O)cc12 (stereo not drawn) [example compound 6, N-((2-(butylamino)-6-(trifluoromethyl)pyridin-3-yl)methyl)-2-(5-hydroxy-1-methyl-1H-indol-3-yl)propanamide] | 16.2 nM | 
5 | CC(C(=O)NCc1ccc(C(F)(F)F)nc1OC1CCOCC1)c1cn(C)c2ccc(O)cc12 (stereo not drawn) [example compound 7, 2-(5-hydroxy-1-methyl-1H-indol-3-yl)-N-((2-((tetrahydro-2H-pyran-4-yl)oxy)-6-(trifluoromethyl)pyridin-3-yl)methyl)propanamide] | 29.1 nM | 
6 | Cc1cccc(-c2nc(C(F)(F)F)ccc2CNC(=O)C(C)c2cn(C)c3ccc(O)cc23)c1 (stereo not drawn) [example compound 8, 2-(5-hydroxy-1-methyl-1H-indol-3-yl)-N-((2-(m-tolyl)-6-(trifluoromethyl)pyridin-3-yl)methyl)propanamide] | 1.4 nM | 
7 | CC(C(=O)NCc1ccc(C(F)(F)F)nc1N1CCOCC1)c1cn(C)c2ccc(O)cc12 (stereo not drawn) [example compound 10, 2-(5-hydroxy-1-methyl-1H-indol-3-yl)-N-((2-morpholino-6-(trifluoromethyl)pyridin-3-yl)methyl)propanamide] | 29.3 nM | 
8 | COCCCc1nc(C(F)(F)F)ccc1CNC(=O)C(C)c1cn(C)c2ccc(O)cc12 (stereo not drawn) [example compound 12, 2-(5-hydroxy-1-methyl-1H-indol-3-yl)-N-((2-(3-methoxypropyl)-6-(trifluoromethyl)pyridin-3-yl)methyl)propanamide] | 81 nM | 
9 | CC(C(=O)NCc1ccc(C(F)(F)F)nc1N1CCCCC1)c1cn(C)c2ccc(O)cc12 (stereo not drawn) [example compound 13, 2-(5-hydroxy-1-methyl-1H-indol-3-yl)-N-((2-(piperidin-1-yl)-6-(trifluoromethyl)pyridin-3-yl)methyl)propanamide] | 3.9 nM | 
10 | CC1CCN(c2nc(C(F)(F)F)ccc2CNC(=O)C(C)c2cn(C)c3ccccc23)CC1 (stereo not drawn) [example compound 14, 2-(1-methyl-1H-indol-3-yl)-N-((2-(4-methylpiperidin-1-yl)-6-(trifluoromethyl)pyridin-3-yl)methyl)propanamide] | 53 nM | 
11 | COCCOCc1nc(C(F)(F)F)ccc1CNC(=O)C(C)c1cn(C)c2ccc(O)cc12 (stereo not drawn) [example compound 15, 2-(5-hydroxy-1-methyl-1H-indol-3-yl)-N-((2-((2-methoxyethoxy)methyl)-6-(trifluoromethyl)pyridin-3-yl)methyl)propanamide] |  | inhibition at 5 µM [1]: 15%
12 | CCNc1nc(C(F)(F)F)ccc1CNC(=O)C(C)c1cn(C)c2ccc(OC)cc12 (stereo not drawn) [example compound 16, N-((2-(ethylamino)-6-(trifluoromethyl)pyridin-3-yl)methyl)-2-(5-methoxy-1-methyl-1H-indol-3-yl)propanamide] |  | TRPV1 human (f) CAP, result in words: ne
13 | CCNc1nc(C(F)(F)F)ccc1CNC(=O)Cc1cn(C)c2ccc(OC)cc12 [example compound 17, N-((2-(ethylamino)-6-(trifluoromethyl)pyridin-3-yl)methyl)-2-(5-methoxy-1-methyl-1H-indol-3-yl)acetamide] |  | inhibition at 1 µM (@ 1 µM compound, capsaicin (CAP) stimulus, relative to maximum achievable inhibition with 10 µM capsazepine, read-out: TRPV1 human (f) CAP, inhibition (in %)): 0%; inhibition at 5 µM [1]: 35%
14 | CCCCNc1nc(C(F)(F)F)ccc1CNC(=O)C(C)c1cn(C)c2ccc(OC)cc12 (stereo not drawn) [example compound 19, N-((2-(butylamino)-6-(trifluoromethyl)pyridin-3-yl)methyl)-2-(5-methoxy-1-methyl-1H-indol-3-yl)propanamide] | 76.4 nM | 
15 | CC(C(=O)NCc1ccc(C(F)(F)F)nc1CC1CCCCC1)c1cn(C)c2ccccc12 (stereo not drawn) [example compound 22, N-((2-(cyclohexylmethyl)-6-(trifluoromethyl)pyridin-3-yl)methyl)-2-(1-methyl-1H-indol-3-yl)propanamide] | 35.9 nM | 
16 | CC1CCN(c2nc(C(F)(F)F)ccc2CNC(=O)Nc2nc3c(Cl)cccc3s2)CC1 [example compound 23, 1-(4-chlorobenzo[d]thiazol-2-yl)-3-((2-(4-methylpiperidin-1-yl)-6-(trifluoromethyl)pyridin-3-yl)methyl)urea] |  | TRPV1 human (f) CAP, result in words: ne
17 | CC1CCN(c2nc(C(F)(F)F)ccc2CNC(=O)Nc2nc3c([N+](=O)[O-])cccc3s2)CC1 [example compound 24, 1-((2-(4-methylpiperidin-1-yl)-6-(trifluoromethyl)pyridin-3-yl)methyl)-3-(4-nitrobenzo[d]thiazol-2-yl)urea] | 31.2 nM | TRPV1 human (f) CAP, result in words: pAG
18 | CC1CCN(c2nc(C(F)(F)F)ccc2CNC(=O)Nc2nc3ccccc3s2)CC1 [example compound 25, 1-(benzo[d]thiazol-2-yl)-3-((2-(4-methylpiperidin-1-yl)-6-(trifluoromethyl)pyridin-3-yl)methyl)urea] | 84.9 nM | 

More lines, main results first:

Row | Ki | Compound | other results
19 | 29.6 nM | COc1ccc2c(c1)c(CC(=O)NCc1ccc(C(F)(F)F)nc1N1CCC(C)CC1)cn2C [example compound 2, 2-(5-methoxy-1-methyl-1H-indol-3-yl)-N-((2-(4-methylpiperidin-1-yl)-6-(trifluoromethyl)pyridin-3-yl)methyl)acetamide] | 
20 | 4.8 nM | CC(C(=O)NCc1ccc(C(F)(F)F)nc1C1CCCC1)c1cn(C)c2ccc(O)cc12 (stereo not drawn) [example compound 3, N-((2-cyclopentyl-6-(trifluoromethyl)pyridin-3-yl)methyl)-2-(5-hydroxy-1-methyl-1H-indol-3-yl)propanamide] | 
21 | 45.7 nM | CC(C(=O)NCc1ccc(C(F)(F)F)nc1C1CCOCC1)c1cn(C)c2ccc(O)cc12 (stereo not drawn) [example compound 9, 2-(5-hydroxy-1-methyl-1H-indol-3-yl)-N-((2-(tetrahydro-2H-pyran-4-yl)-6-(trifluoromethyl)pyridin-3-yl)methyl)propanamide] | 
22 | 0.3 nM | CC1CCN(c2nc(C(F)(F)F)ccc2CNC(=O)Cc2cn(C)c3ccc(O)cc23)CC1 [example compound 11, 2-(5-hydroxy-1-methyl-1H-indol-3-yl)-N-((2-(4-methylpiperidin-1-yl)-6-(trifluoromethyl)pyridin-3-yl)methyl)acetamide] | 
23 | 8.2 nM | CCNc1nc(C(F)(F)F)ccc1CNC(=O)Cc1cn(C)c2ccc(O)cc12 [example compound 18, N-((2-(ethylamino)-6-(trifluoromethyl)pyridin-3-yl)methyl)-2-(5-hydroxy-1-methyl-1H-indol-3-yl)acetamide] | 
24 | 16.5 nM | Cn1cc(CC(=O)NCc2ccc(C(F)(F)F)nc2N2CCOCC2)c2cc(O)ccc21 [example compound 20, 2-(5-hydroxy-1-methyl-1H-indol-3-yl)-N-((2-morpholino-6-(trifluoromethyl)pyridin-3-yl)methyl)acetamide] | 
25 | 8 nM | Cn1cc(CC(=O)NCc2ccc(C(F)(F)F)nc2C2CCCC2)c2cc(O)ccc21 [example compound 21, N-((2-cyclopentyl-6-(trifluoromethyl)pyridin-3-yl)methyl)-2-(5-hydroxy-1-methyl-1H-indol-3-yl)acetamide] | 
